In paper PMC12040169 (PLOS Biology, 2025):

Assay: in vitro
Conditions: human, hela cells, % viability

Structure (SMILES)	viability at 28.5 h, 10 µM	viability at 28.5 h, 10 µM (bulk resorufin, single well)
CC1(C)CC(=O)C2=C(C1)Nc1[nH][nH]c(=O)c1C2c1ccccn1 (centres unmarked) [CBK288463]	92%	
Cc1cc2c(cc3c(=O)n(CC(=O)NC(C)(C)C)nc(C)n32)s1 [CBK284070]	84.1%	
CC(C)C(=O)NC(NC(=S)Nc1cccc2cccnc12)C(Cl)(Cl)Cl (centres unmarked) [CBK261051]	90%	
O=C(Cn1c(C2CCOCC2)cc2cccnc21)N1CCCCCC1 [CBK284674]	105%	
COc1ccccc1C1CCCN1Cc1c(C)nc2ccccn12 (centres unmarked) [CBK281995]	91.9%	
CC(C)(C)C(=O)N1CCC(c2[nH]ncc2-c2ccncc2)CC1 [CBK284211]	88.2%	
Cc1nc(CNC(=O)NC2CCCN(c3ccn(C)n3)C2=O)c(C)s1 (centres unmarked) [CBK305926]	95%	
CC(=O)OCC(=O)N1CCC(N(C)Cc2ccc(-c3ccc(S(C)(=O)=O)cc3)nc2)CC1 [CBK165268]	116%	
CCC(CCC(=O)Nc1ccccc1Cl)C(=O)O (centres unmarked) [CBK286767]	86.8%	
CCOc1cccc(CNc2nn[nH]n2)c1OCc1ccc(C)cc1 [CBK288127]	110%	
O=S(=O)(NC1CCCCC1n1cc(-c2ccccc2)nn1)c1ccc(Cl)cc1 (centres unmarked) [CBK266391]	99%	
CCCCNS(=O)(=O)c1ccc(OCC(=O)O)cc1 [CBK268550]	99.1%	
CCOCc1nc2c(c(NCCn3cccn3)n1)CCN(C(C)=O)CC2 [CBK307707]	98.3%	
COc1ccc(-c2c[n+]3ccccc3c(=O)[nH]2)cc1 [CBK011078B]	93.8%	
O=c1c(N2CCCNCC2)nccn1CCOc1ccc(Oc2ccccc2)cc1 [CBK028615T]	101%	
FC(F)(F)c1ccc(Sc2cccc3ccccc23)nc1 [CBK089553]	93.7%	
Oc1ccc(/N=C/c2ccc(/C=N/c3ccc(O)cc3)cc2)cc1 [CBK261203]	98.5%	
COc1ccc(C(=O)CCN(C)CC(=O)O)cc1 [CBK287227]	89.7%	
c1ccc(SCCN2CCOCC2)cc1 [CBK027679]	97.8%	
O=C(NC(c1ccccc1)c1ccsc1)C1CCN(C/C=C/c2ccccc2)CC1 (centres unmarked) [CBK148449]	89.4%	
Cc1cccc(N(CC(=O)O)CC(=O)O)c1 [CBK261103]	93.2%	
CCOc1cc(/C=C/c2ccc3cccc(O)c3n2)cc(Br)c1O [CBK264451]	95%	

Structure (SMILES)	viability at 28.5 h, 10 µM	viability at 28.5 h, 10 µM (bulk resorufin, single well)
Cc1cc(NC(=O)C2CCN(C(=O)c3cnc(N)c(Cl)c3)CC2)no1 [CBK305545]	110%	
CCN(C)C(=O)N1CCN(CCCC(c2ccc(F)cc2)c2ccc(F)cc2)CC1 [CBK024910C]	90.6%	
O=C(NCc1c(Cl)cccc1Cl)N1CCCCC1CO (centres unmarked) [CBK156184]	99.5%	
OCCCNc1nccnc1-c1cccnc1 [CBK037277]	108%	
CC(=O)NCc1cccc(-c2cncc(C(=O)Nc3ccc4c(c3)OCCO4)c2)c1 [CBK161009T]	82.1%	
COC(=O)c1cc(-c2ccccc2OCc2ccccc2)ccc1NC(=O)c1ccc(Cl)cc1Cl [CBK000415]	88.5%	
CC(C)[C@H](CO)n1c(=O)[nH]c2ncc(-c3cccc4ncccc34)nc21 [CBK064955]	99.5%	
CN1CCN(C(=O)C2CCCCC2C(=O)O)CC1 (centres unmarked) [CBK287092]	86.4%	
COC(=O)C1=C(C)OC(n2cccc2)=C(C#N)C1c1cc(OC)c(O)c(OC)c1 (centres unmarked) [CBK293994]	101%	
COC(=O)c1c(NC(=O)CC2Nc3cccc4cccc(c34)NC2=O)sc(C)c1C (centres unmarked) [CBK267562]	68.3%	
CC(NC(=O)Cc1cccs1)c1nc2cccnc2n1C(C)C (centres unmarked) [CBK283828]	81%	
COc1ccc(-n2c(=O)[nH]cc(C(=O)Nc3cccc(Cl)c3C)c2=O)cc1 [CBK287549]	118%	
Cc1ccc(S(=O)(=O)NCCn2cnc([N+](=O)[O-])n2)cc1 [CBK266270]	96.3%	
c1cc(-c2nccnc2OC2CCCCC2)ccn1 [CBK106727]	87.8%	
CCN(CC(=O)NC(C)(C)C)S(=O)(=O)c1cccc(C#N)c1 [CBK306087]	114%	
c1ccc(COc2ccc(CN3CCN(c4ccccn4)CC3)cc2)cc1 [CBK261865]	89.3%	
CC(CCc1ccc(O)cc1)NC1CCCC1 (centres unmarked) [CBK033987]	102%	
CC(Oc1ccccc1)C(=O)Nc1nn(Cc2ccc(S(=O)(=O)N3CCCC3)cc2)c2ccccc12 (centres unmarked) [CBK061595]	102%	
CCc1nc2ccc(C(=O)Nc3ccc(NC(C)=O)cc3)cn2c1N(C)C(=O)Cc1ccccc1 [CBK146855]	95.3%	
N#C/C(=C\c1cn(CCC(N)=O)c2ccccc12)Sc1nc2ccccc2s1 [CBK267897]	103%	
CC(=O)Nc1ccc(S(=O)(=O)NC2(C(F)(F)F)NC(=O)N(c3ccc(Cl)cc3)C2=O)cc1 (centres unmarked) [CBK267689]	95.7%	
c1ccc(-c2cc(CC3(NCc4cc5ccccc5o4)COC3)no2)nc1 [CBK289239]	93.4%	

Structure (SMILES)	viability at 28.5 h, 10 µM	viability at 28.5 h, 10 µM (bulk resorufin, single well)
CN(C)CCN1CCN(c2nc(-c3cccc4ccccc34)cnc2N)CC1 [CBK063479]	94.7%	
CCCNC(=O)Cn1nc(CC)n2c(cc3sccc32)c1=O [CBK284030]	89.3%	
CC(C)C(=O)N1CCC(n2c(=O)oc3ccc(Cl)cc32)CC1 [CBK284339]	79.9%	
CC(NC(=O)COc1ccc(Cl)cc1)C(=O)O (centres unmarked) [CBK262112]	90.7%	
CCc1c(C)nc2ccc(NC(C)=O)cc2c1SCCC(=O)O [CBK159465T]	98.7%	
O=c1c2c(n3c(S)nnc3n1Cc1ccco1)-c1ccccc1CC21CCCCC1 [CBK265271]	94.7%	
COc1ccc2c(c1)CC(C(=O)N1CCc3sccc3C1c1cccs1)CO2 (centres unmarked) [CBK285628]	110%	
Cc1nc2ccc(C(=O)N(C)CCN(C)C)cn2c1N(C)CC1CCCCC1 [CBK145894]	96.7%	
O=C(O)/C=C/C(=O)NNC(=O)c1ccccc1O [CBK261789]	97.4%	
CCOC(=O)c1ccc(-c2[nH]cnc2-c2c(C)cc(OC)cc2O)o1 [CBK026647]	113%	
c1ccc2c(OCc3nnn[nH]3)cccc2c1 [CBK269495]	103%	
Cc1oc2ncn(Cc3ccccc3)c(=N)c2c1C [CBK288160]	94.4%	
CCc1nnc2sc(-c3ccccc3Br)nn12 [CBK269533]	67.4%	
CCN(CC)c1ccc(CN(CCCN(C)C)C(=O)NCc2ccc(F)cc2)cc1 [CBK159410]	89.9%	
CC(C)[C@@H](CO)Nc1cncc(-c2ccc3ccccc3c2)n1 [CBK065546]	100%	
COc1ccc(C2(C(F)(F)F)NC(=O)N3CCN=C3S2)cc1 (centres unmarked) [CBK019170]	106%	
O=C1NC(=S)NC(=O)C1=CNc1ccc(F)c(Cl)c1 [CBK262391]		118%
CCOc1ccc(OCC)c(S(=O)(=O)n2nc(C)cc2C)c1 [CBK264024]	94.6%	
Cc1csc(Sc2nc3ccccc3nc2N2CCCC2)n1 [CBK093788]	99.2%	
Cc1ccc(CSCC(=O)N2CCC(Cc3ccccc3)CC2)cc1 [CBK058739]	95.6%	
O=C(O)CCC(=O)NNc1ccccc1[N+](=O)[O-] [CBK261546]	95.7%	
